This passage reports Ki results from BindingDB's records for PubMed 2530338 (Medical University of South Carolina, 1989).

This assay concerns the target T1, Thromboxane A2 receptor (Homo sapiens, UniProt P21731).
T1 sequence (P21731 whole entry): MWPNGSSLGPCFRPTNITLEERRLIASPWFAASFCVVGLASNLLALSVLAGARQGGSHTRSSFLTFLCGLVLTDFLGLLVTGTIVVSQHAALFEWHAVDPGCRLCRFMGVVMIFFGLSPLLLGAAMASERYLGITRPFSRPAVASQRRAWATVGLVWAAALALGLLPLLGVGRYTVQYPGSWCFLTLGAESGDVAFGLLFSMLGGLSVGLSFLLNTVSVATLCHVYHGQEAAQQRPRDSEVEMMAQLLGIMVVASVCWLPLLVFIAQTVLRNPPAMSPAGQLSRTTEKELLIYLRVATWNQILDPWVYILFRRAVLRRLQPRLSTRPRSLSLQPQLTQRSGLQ
Usually Ki stands for the equilibrium dissociation constant of an inhibitor or competing ligand from its target. Regarding `CCCCC[C@H](O)CC[C@H]1c2cc([nH]n2)[C@@H]1CC=CCCCC(=O)O` [9,11-AzoPGH2], the affinity, expressed as Ki, was 41 nM.

With `O=C(O)C[C@@H]1CCCc2c1n(Cc1ccc(Cl)cc1)c1ccc(F)cc21` [CAS_113243-00-8], the inhibition constant (Ki) turned out to be 424 nM.

`CCCCC[C@H](O)/C=C/C1[C@@H](C/C=C\CCCC(=O)O)[C@H]2CO[C@@H]1C2` (some centres undefined) [U46619] returned a Ki of 62 nM.

As for `CCCCC[C@H](O)/C=C/C1C[C@H]2C[C@H](S2)[C@@H]1C/C=C\CCCC(=O)O` (some centres undefined) [STA2], the inhibitory constant (Ki) amounted to 17 nM.
